Test results from patent US20260285855A1, “HETEROARYL DERIVATIVES AS DDRS INHIBITORS” (CHIESI FARMACEUTICI S.P.A., priority 2023, published 2026).

Columns and labels:
DDR2 = target: T1, DDR2 (Homo sapiens, UniProt Q16832); assay: LanthaScreen Europium Kinase Binding assay, DDR2; details: 5 nM DDR2, 10 nM Kinase Tracer 178, 1 h at rt; Ki from IC50 by Cheng-Prusoff; read-out: Ki DDR2
T1 construct: purchased Life Technologies
T1 sequence (Q16832 22-855): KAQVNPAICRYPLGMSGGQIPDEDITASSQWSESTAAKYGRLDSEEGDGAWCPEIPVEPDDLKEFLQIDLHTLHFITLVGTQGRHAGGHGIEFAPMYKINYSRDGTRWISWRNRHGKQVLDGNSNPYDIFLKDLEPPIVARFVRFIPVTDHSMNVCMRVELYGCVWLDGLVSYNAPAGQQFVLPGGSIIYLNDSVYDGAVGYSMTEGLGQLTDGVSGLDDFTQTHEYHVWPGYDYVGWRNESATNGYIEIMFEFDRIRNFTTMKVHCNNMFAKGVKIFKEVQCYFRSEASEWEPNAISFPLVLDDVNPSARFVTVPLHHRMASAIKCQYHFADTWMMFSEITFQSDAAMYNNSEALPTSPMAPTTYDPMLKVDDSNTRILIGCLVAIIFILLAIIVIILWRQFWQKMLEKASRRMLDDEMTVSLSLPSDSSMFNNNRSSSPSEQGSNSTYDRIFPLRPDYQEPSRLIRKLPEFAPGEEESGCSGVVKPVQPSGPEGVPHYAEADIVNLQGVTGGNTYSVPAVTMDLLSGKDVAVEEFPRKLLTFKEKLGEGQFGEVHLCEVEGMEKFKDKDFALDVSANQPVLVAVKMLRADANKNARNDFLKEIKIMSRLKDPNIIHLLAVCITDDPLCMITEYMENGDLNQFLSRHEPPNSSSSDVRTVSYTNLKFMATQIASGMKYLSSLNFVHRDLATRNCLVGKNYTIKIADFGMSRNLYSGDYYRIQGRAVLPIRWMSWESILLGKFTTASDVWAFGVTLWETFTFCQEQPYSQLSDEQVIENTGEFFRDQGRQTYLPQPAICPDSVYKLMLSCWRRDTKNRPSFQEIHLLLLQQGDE
Experimental: (§1) DDR1 and DDR2 binding assays were performed using Life Technologies LanthaScreen™ Europium Kinase Binding assay. […] IC50 values were determined in GraphPad Prism 7.0 software, using 4 parameter model: log (inhibitor) vs. response. IC50 values were converted in Ki using the Cheng-Prusoff equation (Ki-IC50/(1+ [Tracer]/Kd).

DDR1 = target: T2, DDR1 (Homo sapiens, UniProt Q08345); assay: LanthaScreen Europium Kinase Binding assay, DDR1; details: 5 nM DDR1, 20 nM Kinase Tracer 178, 1 h at rt; Ki from IC50 by Cheng-Prusoff; read-out: Ki DDR1
T2 construct: purchased Carna Biosciences
Experimental: as §1

T2 sequence (Q08345 19-913): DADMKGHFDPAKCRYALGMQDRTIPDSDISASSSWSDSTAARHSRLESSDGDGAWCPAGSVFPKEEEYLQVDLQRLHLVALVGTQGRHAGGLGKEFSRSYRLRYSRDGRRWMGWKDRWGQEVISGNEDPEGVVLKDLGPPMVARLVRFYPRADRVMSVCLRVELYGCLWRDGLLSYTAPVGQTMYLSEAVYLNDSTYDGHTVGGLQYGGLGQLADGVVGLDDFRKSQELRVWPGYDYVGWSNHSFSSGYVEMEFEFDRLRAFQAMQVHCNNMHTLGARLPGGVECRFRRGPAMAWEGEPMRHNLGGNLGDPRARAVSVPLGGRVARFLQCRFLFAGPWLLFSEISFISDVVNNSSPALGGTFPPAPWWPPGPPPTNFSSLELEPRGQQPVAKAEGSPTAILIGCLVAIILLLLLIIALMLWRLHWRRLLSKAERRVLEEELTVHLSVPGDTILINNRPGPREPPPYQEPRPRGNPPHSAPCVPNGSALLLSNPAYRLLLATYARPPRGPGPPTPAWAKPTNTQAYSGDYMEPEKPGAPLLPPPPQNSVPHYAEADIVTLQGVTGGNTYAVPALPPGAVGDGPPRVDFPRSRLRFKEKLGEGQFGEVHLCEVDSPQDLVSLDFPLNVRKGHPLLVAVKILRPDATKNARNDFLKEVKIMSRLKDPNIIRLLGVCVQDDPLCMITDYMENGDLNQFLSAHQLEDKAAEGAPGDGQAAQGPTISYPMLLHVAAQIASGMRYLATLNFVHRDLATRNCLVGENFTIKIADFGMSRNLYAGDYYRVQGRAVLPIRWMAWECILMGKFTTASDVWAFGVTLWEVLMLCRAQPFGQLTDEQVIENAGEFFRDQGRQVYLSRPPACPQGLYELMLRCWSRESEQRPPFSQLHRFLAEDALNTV

Compound | Ki (DDR2) [nM] | Ki (DDR1) [nM]
Cc1ccc(OC(F)(F)F)cc1NC(=O)N(C)C1CC2(C1)CN(C(=O)c1ncnc3[nH]ccc13)C2 [Example 201, 1-(2-(7H-pyrrolo[2,3-d]pyrimidine-4-carbonyl)-2-azaspiro[3.3]heptan-6-yl)-1-methyl-3-(2-methyl-5-(trifluoromethoxy)phenyl)urea] | 5 to 25 | < 5
COCCn1ccn2ncc(C(=O)N3CC4(CC(N(C)C(=O)Nc5cc(OC(F)(F)F)ccn5)C4)C3)c12 [Example 202, 1-(2-(1-(2-methoxyethyl)-1H-imidazo[1,2-b]pyrazole-7-carbonyl)-2-azaspiro[3.3]heptan-6-yl)-1-methyl-3-(4-(trifluoromethoxy)pyridin-2-yl)urea] | 25 to 100 | < 5
COCCn1ccn2ncc(C(=O)N3CC4(CC(N(C)C(=O)Nc5cccc(C(F)(F)F)c5)C4)C3)c12 [Example 203, 1-(2-(1-(2-methoxyethyl)-1H-imidazo[1,2-b]pyrazole-7-carbonyl)-2-azaspiro[3.3]heptan-6-yl)-1-methyl-3-(3-(trifluoromethyl)phenyl)urea] | 5 to 25 | < 5
CN(C(=O)Nc1cncc(OC(F)(F)F)c1)C1CC2(C1)CN(C(=O)c1ncnc3[nH]ccc13)C2 [Example 204, 1-(2-(7H-pyrrolo[2,3-d]pyrimidine-4-carbonyl)-2-azaspiro[3.3]heptan-6-yl)-1-methyl-3-(5-(trifluoromethoxy)pyridin-3-yl)urea] | 5 to 25 | < 5
CN(C(=O)Nc1cc(OC(F)(F)F)ccn1)C1CC2(C1)CN(C(=O)c1ncnc3[nH]ccc13)C2 [Example 205, 1-(2-(7H-pyrrolo[2,3-d]pyrimidine-4-carbonyl)-2-azaspiro[3.3]heptan-6-yl)-1-methyl-3-(4-(trifluoromethoxy)pyridin-2-yl)urea] | 5 to 25 | < 5
CN(C(=O)Nc1cncc(C(F)(F)F)c1)C1CC2(C1)CN(C(=O)c1ncnc3[nH]ccc13)C2 [Example 206, 1-(2-(7H-pyrrolo[2,3-d]pyrimidine-4-carbonyl)-2-azaspiro[3.3]heptan-6-yl)-1-methyl-3-(5-(trifluoromethyl)pyridin-3-yl)urea] | 5 to 25 | < 5
CN(C(=O)Nc1cncc(SC(F)(F)F)c1)C1CC2(C1)CN(C(=O)c1cnn3ccn(C)c13)C2 [Example 207, 1-methyl-1-(2-(1-methyl-1H-imidazo[1,2-b]pyrazole-7-carbonyl)-2-azaspiro[3.3]heptan-6-yl)-3-(5-((trifluoromethyl)thio)pyridin-3-yl)urea] | 5 to 25 | < 5
CN(C(=O)Nc1cc(C(F)(F)F)cnn1)C1CC2(C1)CN(C(=O)c1cnn3ccn(C)c13)C2 [Example 208, 1-methyl-1-(2-(1-methyl-1H-imidazo[1,2-b]pyrazole-7-carbonyl)-2-azaspiro[3.3]heptan-6-yl)-3-(5-(trifluoromethyl)pyridazin-3-yl)urea] | 25 to 100 | 5 to 25

The next lines start with the values.

Ki (DDR2) [nM] | Ki (DDR1) [nM] | Compound
5 to 25 | < 5 | CN(C(=O)Nc1cc(C(F)(F)F)ccn1)C1CC2(C1)CN(C(=O)c1cnn3ccn(CCO)c13)C2 [Example 209, 1-(2-(1-(2-hydroxyethyl)-1H-imidazo[1,2-b]pyrazole-7-carbonyl)-2-azaspiro[3.3]heptan-6-yl)-1-methyl-3-(4-(trifluoromethyl)pyridin-2-yl)urea]
< 5 | < 5 | CN(C(=O)Nc1cccc(S(F)(F)(F)(F)F)c1)C1CC2(C1)CN(C(=O)c1cnn3ccn(CCO)c13)C2 [Example 210, 1-(2-(1-(2-hydroxyethyl)-1H-imidazo[1,2-b]pyrazole-7-carbonyl)-2-azaspiro[3.3]heptan-6-yl)-1-methyl-3-(3-(pentafluoro-16-sulfaneyl)phenyl)urea]
25 to 100 | 5 to 25 | COc1c(CO)cc(OC(F)(F)F)cc1NC(=O)NC1CC2(C1)CN(C(=O)c1cnn3ccncc13)C2 [Example 212, 1-(3-(hydroxymethyl)-2-methoxy-5-(trifluoromethoxy)phenyl)-3-(2-(pyrazolo[1,5-a]pyrazine-3-carbonyl)-2-azaspiro[3.3]heptan-6-yl)urea]
25 to 100 | 5 to 25 | COCCn1ccn2ncc(C(=O)N3CC4(CC(N(C)C(=O)Nc5cncc(C(F)(F)F)c5)C4)C3)c12 [Example 213, 1-(2-(1-(2-methoxyethyl)-1H-imidazo[1,2-b]pyrazole-7-carbonyl)-2-azaspiro[3.3]heptan-6-yl)-1-methyl-3-(5-(trifluoromethyl)pyridin-3-yl)urea]
5 to 25 | < 5 | CN(C(=O)Nc1cncc(C(F)(F)F)c1)C1CC2(C1)CN(C(=O)c1cnn3ccc(N4CCCC4)cc13)C2 [Example 214, 1-methyl-1-(2-(5-(pyrrolidin-1-yl)pyrazolo[1,5-a]pyridine-3-carbonyl)-2-azaspiro[3.3]heptan-6-yl)-3-(5-(trifluoromethyl)pyridin-3-yl)urea]
25 to 100 | 5 to 25 | CN(C(=O)Nc1cc(C(C)(C)C)no1)C1CC2(C1)CN(C(=O)c1cnn3ccn(C)c13)C2 [Example 215, 3-(3-(tert-butyl)isoxazol-5-yl)-1-methyl-1-(2-(1-methyl-1H-imidazo[1,2-b]pyrazole-7-carbonyl)-2-azaspiro[3.3]heptan-6-yl)urea]
25 to 100 | < 5 | CN(C(=O)Nc1cncc(C(F)(F)F)c1)C1CC2(C1)CN(C(=O)c1cnn3ccccc13)C2 [Example 216, 1-methyl-1-(2-(pyrazolo[1,5-a]pyridine-3-carbonyl)-2-azaspiro[3.3]heptan-6-yl)-3-(5-(trifluoromethyl)pyridin-3-yl)urea]
5 to 25 | < 5 | CN(C(=O)Nc1cc(C(F)(F)F)ccn1)C1CC2(C1)CN(C(=O)c1cnn3ccsc13)C2 [Example 217, 1-methyl-1-(2-(pyrazolo[5,1-b]thiazole-7-carbonyl)-2-azaspiro[3.3]heptan-6-yl)-3-(4-(trifluoromethyl)pyridin-2-yl)urea]
5 to 25 | < 5 | COc1c(CO)cc(OC(F)(F)F)cc1NC(=O)N(C)C1CC2(C1)CN(c1cnc3[nH]ncc3c1)C2 [Example 218, 1-(2-(1H-pyrazolo[3,4-b]pyridin-5-yl)-2-azaspiro[3.3]heptan-6-yl)-3-(3-(hydroxymethyl)-2-methoxy-5-(trifluoromethoxy)phenyl)-1-methylurea]
5 to 25 | < 5 | CN(C(=O)Nc1cc(OC(F)(F)F)ccn1)C1CC2(C1)CN(c1cnc3[nH]ncc3c1)C2 [Example 219, 1-(2-(1H-pyrazolo[3,4-b]pyridin-5-yl)-2-azaspiro[3.3]heptan-6-yl)-1-methyl-3-(4-(trifluoromethoxy)pyridin-2-yl)urea]
25 to 100 | 5 to 25 | CN(C(=O)Nc1cncc(C(F)(F)F)c1)C1CC2(C1)CN(c1cnc3[nH]ccc3c1)C2 [Example 220, 1-(2-(1H-pyrrolo[2,3-b]pyridin-5-yl)-2-azaspiro[3.3]heptan-6-yl)-1-methyl-3-(5-(trifluoromethyl)pyridin-3-yl)urea]
5 to 25 | < 5 | CN(C(=O)Nc1cncc(OC(F)(F)F)c1)C1CC2(C1)CN(c1cnc3[nH]ncc3c1)C2 [Example 221, 1-(2-(1H-pyrazolo[3,4-b]pyridin-5-yl)-2-azaspiro[3.3]heptan-6-yl)-1-methyl-3-(5-(trifluoromethoxy)pyridin-3-yl)urea]
